Assay results from patent US7435540B2 (IDEXX Corporation, priority 2002, dated 2008).

Tests used:
[1] = test system: PrP^Sc
[2] = biological target: PrP^Sc (Mus musculus, UniProt P04925)
[3] = biological target: mouse PrP^Sc (Mus musculus, UniProt P04925)
[4] = biological target: PrP^C (Mesocricetus auratus, UniProt P04273)
[5] = biological target: bovine PrP^Sc (Bos taurus, UniProt P10279)
bovine PrP^Sc, sequence (P10279 25-241 limits assumed): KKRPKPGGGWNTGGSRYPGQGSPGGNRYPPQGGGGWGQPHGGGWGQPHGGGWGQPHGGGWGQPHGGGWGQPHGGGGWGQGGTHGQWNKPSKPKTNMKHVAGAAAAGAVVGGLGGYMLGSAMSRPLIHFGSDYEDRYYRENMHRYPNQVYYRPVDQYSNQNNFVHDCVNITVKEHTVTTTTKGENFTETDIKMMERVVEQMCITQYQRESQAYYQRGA

mouse PrP^Sc, sequence (P04925 23-230 limits assumed): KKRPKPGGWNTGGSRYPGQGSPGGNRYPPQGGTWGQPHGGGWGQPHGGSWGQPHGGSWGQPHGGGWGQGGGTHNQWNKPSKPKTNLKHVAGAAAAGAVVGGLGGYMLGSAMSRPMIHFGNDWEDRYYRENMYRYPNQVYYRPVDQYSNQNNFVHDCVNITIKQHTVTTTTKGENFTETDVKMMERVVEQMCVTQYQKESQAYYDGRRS
PrP^Sc (Mus musculus, UniProt P04925), sequence (P04925 23-230 limits assumed): as above
PrP^C, sequence (P04273 23-231 limits assumed): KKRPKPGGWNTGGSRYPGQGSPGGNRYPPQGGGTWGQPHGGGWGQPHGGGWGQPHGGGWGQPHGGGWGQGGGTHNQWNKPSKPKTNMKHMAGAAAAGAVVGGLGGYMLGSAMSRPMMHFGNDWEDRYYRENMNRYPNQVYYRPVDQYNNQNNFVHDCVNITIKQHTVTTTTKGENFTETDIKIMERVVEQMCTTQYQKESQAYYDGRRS

Row | Sequence | PrP^Sc selective binding / capture [1] | precipitation of PrP^Sc from scrapie mouse brain lysate [2] | competition with YYRRYYRYY beads for capture of mouse PrP^Sc [3] | other results
1 | NHSTHNTGH | negative for PrP^Sc selective capture |  |  | 
2 | YSAASYASY |  | precipitation of PrP^Sc was observed | compete | 
3 | YARYARYAR | shown to selectively bind PrP^Sc |  |  | 
4 | YYAAYYAYY |  | precipitation of PrP^Sc was observed | compete | 
5 | DEAYYKGWFAY | negative for PrP^Sc selective capture |  |  | 
6 | YRAARYRAY | shown to selectively bind PrP^Sc |  |  | 
7 | YYRRYYRYY |  | precipitation of PrP^Sc was observed |  | precipitation of normal isoform PrP^C from normal hamster brain lysate [4]: not the normal isoform; capture of PrP^Sc from BSE-positive bovine brain lysate [5]: captures PrP^Sc
8 | YARRAYRAY |  | not with YAR or AYR repeats | failed to compete | capture of PrP^Sc from BSE-positive bovine brain lysate [5]: failed to capture PrP^Sc
9 | AYRRYARYA |  | not with YAR or AYR repeats |  | 
10 | DRYYWYFDV | negative for PrP^Sc selective capture |  |  | 
